Measured values as given in patent US6043228A, “O^6 -substituted guanine derivatives, a process for their preparation and their use in treating tumor cells” (Cancer Research Campaign Technology Limited, priority 1993, dated 2000).

What was measured:
[1] = biological target: T1, recombinant human ATase (Homo sapiens, UniProt P16455); experiment: In vitro ATase inactivation assay (incubation with inactivators and ATase assay); type: biochemical; details: recombinant human ATase, standard conditions
T1 construct: made in house
T1 sequence (P16455 1-207): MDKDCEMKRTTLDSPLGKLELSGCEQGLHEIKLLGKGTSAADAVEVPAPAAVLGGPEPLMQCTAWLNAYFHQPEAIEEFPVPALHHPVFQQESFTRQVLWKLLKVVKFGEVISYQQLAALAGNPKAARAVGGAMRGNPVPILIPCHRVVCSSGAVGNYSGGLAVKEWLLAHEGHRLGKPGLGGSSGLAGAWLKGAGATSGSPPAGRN
Method: The cDNA cloning and overexpression of the human ATase has been reported previously^23. Purification of the recombinant proteins was achieved either by affinity chromatography through a DNA-cellulose column as described by Wilkinson et al.,^25, 26 or by DEAE-cellulose ion-exchange chromatography. For the latter, the ATase protein was partially purified by ammonium sulphate precipitation (30-60%) and dialysed against 10 mM Tris-HCl pH 7.5, 1 mM DTT, 2 mM EDTA, 10% glycerol, before loading on a DEAE-cellulose column. The ATase was then eluted with a 0-0.1 M NaCl gradient.
Compounds to be tested were dissolved in DMSO to a final concentration of 10 mM and diluted just before use in buffer I containing 1 mg/ml bovine serum albumin (IBSA). Recombinant ATase was diluted in IBSA and titrated in order that the reaction be conducted under ATase, and not substrate, limiting conditions. […] Following acid hydrolysis of the DNA as previously described^21 the [^3 H]-methylated protein was recovered and quantitated by liquid scintillation counting. Samples were typically assayed in duplicate and experiments repeated several times. I50 is the concentration of inactivator required to produce a 50% reduction in ATase activity.

[2] = Sensitivity of mammalian cells to the inactivators alone: V79 cells; type: cell-based, Chinese hamster; details: hamster, v79 cells; FIG. 5; read-out: growth inhibitory dose in V79 cells relative to I50 dose
Method: (§1) In order to assess the effects on cell growth alone, Xeroderma pigmentosum cells and Chinese Hamster V79 cells were exposed to increasing concentrations (up to 600 μM) of selected inactivators for 2 h at 37°. In some cases, the inactivators were allowed to undergo hydrolysis at 37° C. for 20 hours and then added to Raji cells in order to assess the extent to which the decomposition products of the agents might inhibit cell growth. After 6 days the extent of cell growth was determined as described above.

[3] = system: Chinese Hamster V79 cells; experiment: as above; type: cell-based
Method: as §1

[4] = system: ATase; experiment: Inactivation of ATase in mammalian cells, summary over human, rat and Chinese hamster cell lines; type: cell-based; details: Table 5
Method: Mammalian cells were cultured under standard conditions. For example, Raji (a human lymphoblastoid cell line from a Burkitt's lymphoma) cells were grown in suspension culture in RPMI medium supplemented with 10% horse serum. […]
Cells were diluted to 10^6 /ml in culture medium containing either the appropriate concentration of inactivator or an equivalent volume of vehicle (DMSO). […] ATase activity was determined as described above, in duplicate sonicated cell extracts and expressed as the, percentage activity remaining based on that present in the untreated controls (for example 350-450 fm/mg in Raji cells).

[5] = system: Xeroderma pigmentosum cells; experiment: Sensitivity of mammalian cells to the inactivators alone: XP cells; type: cell-based, human; details: inactivator alone (FIG. 6)
Method: as §1

[6] = as above; type: cell-based, human; details: human, xp cells; FIG. 6; read-out: dose required for growth inhibition relative to that required for ATase inactivation
Method: as §1

## Nc1nc(OCc2ccco2)c2nc[nH]c2n1 [B.4203, 0^6 -furfurylguanine]
[1]
  ATase inactivation in vitro, result in words: not as effective as BeG
[2]
  selectivity ratio: ≥ 100
[3]; FIGS. 5 & 6
  toxic concentration in V79 cells relative to concentration sensitizing to BCNU: at least 100 times
[3]; inactivator alone, 2 h (FIG. 5)
  dose producing some growth inhibition of V79 cells: > 100 µM
[3]; inactivator alone, up to 600 μM
  growth inhibition / toxicity to V79 cells, in words: toxic
[4]
  effectiveness relative to BeG in the cell lines used: up to 7 times
[5]
  growth inhibition / toxicity to XP cells, in words: toxic
[6]
  selectivity ratio: ≥ 100
